Molecules are shown by their SMILES.

The target in test [1] is T1, human 5-HT1A-serotoninergic receptor (Homo sapiens, UniProt P08908).
T1 construct: expressed in transfected cells; host or cells: HeLa
T1 sequence (P08908 1-422): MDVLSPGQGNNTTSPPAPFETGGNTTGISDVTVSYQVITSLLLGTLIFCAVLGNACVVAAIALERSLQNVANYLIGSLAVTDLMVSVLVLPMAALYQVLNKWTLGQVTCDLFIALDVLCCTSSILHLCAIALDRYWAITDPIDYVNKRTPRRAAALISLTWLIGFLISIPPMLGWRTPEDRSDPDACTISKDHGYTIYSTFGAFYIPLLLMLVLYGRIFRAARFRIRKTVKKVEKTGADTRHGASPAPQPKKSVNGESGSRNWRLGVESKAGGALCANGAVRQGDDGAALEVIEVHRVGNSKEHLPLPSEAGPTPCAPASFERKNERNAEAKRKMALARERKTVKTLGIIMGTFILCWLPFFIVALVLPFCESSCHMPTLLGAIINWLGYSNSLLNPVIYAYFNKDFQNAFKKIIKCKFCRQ
The test is described as follows: Radioligand binding ([3H]8-OH-DPAT) to cloned 5-HT1A receptor in HeLa cell membranes. As to conditions: read-out: Affinity (Ki) 5-HT1A. The method, then: HeLa cells were grown as monolayers in Dulbecco's modified Eagle's medium (DMEM), supplemented with 10% fetal calf serum and gentamicin (100 μg/mL), at 37° C. in 5% CO2. The cells were detached from the growth flask at 95% confluence by a cell scraper and were lysed in a buffer containing ice cold 5 mM Tris, 5 mM EDTA (pH 7.4). The homogenates were centrifuged at 40,000×g for 20 minutes and the membranes were resuspended in a small volume of ice-cold buffer containing 5 mM Tris and 5 mM, EDTA (pH 7.4), and immediately frozen and stored at −70° C. until use.
Non-specific binding was determined in the presence of 10 μM 5-HT. Incubation was stopped by addition of ice-cold Tris buffer and rapid filtration through Schleicher & Schuell GF52 filters that had been pretreated with 0.2%-polyethyleneimine.
(§1) Data were expressed as mean of Ki.

The target of another test is T2, α1L adrenoceptor (Oryctolagus cuniculus, UniProt O02824).
T2 sequence (O02824 1-466): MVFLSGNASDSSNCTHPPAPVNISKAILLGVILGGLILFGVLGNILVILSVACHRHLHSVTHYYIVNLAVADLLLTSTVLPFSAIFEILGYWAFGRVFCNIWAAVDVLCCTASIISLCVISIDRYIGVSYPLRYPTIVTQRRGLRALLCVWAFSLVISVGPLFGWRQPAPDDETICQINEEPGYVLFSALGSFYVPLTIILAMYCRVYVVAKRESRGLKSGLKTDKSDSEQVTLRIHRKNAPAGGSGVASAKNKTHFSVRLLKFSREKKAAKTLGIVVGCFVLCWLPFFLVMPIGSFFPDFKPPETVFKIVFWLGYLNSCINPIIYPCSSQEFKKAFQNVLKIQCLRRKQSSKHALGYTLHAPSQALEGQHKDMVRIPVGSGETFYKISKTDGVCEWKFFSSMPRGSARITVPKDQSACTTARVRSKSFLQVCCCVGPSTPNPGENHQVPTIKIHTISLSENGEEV
Put plainly: Functional antagonism of noradrenaline-induced contractions of rabbit aorta pretreated with chloroethylclonidine. The class given is biochemical. The following applies: NA-induced contractions. As for the experimental part:
Adult male New Zealand rabbits were sacrificed by cervical dislocation. The aorta was removed, placed in Krebs-Henseleit buffer and dissected free of adhering tissue. […] Desmethylimipramine (0.1 μM) and corticosterone (1 μM) to block neuronal and extraneuronal uptake of NA, (±)-propranol (1 μM) to block β adrenoceptors and yohimbine (0.1 μM) to block α2 adrenoceptors were added to the buffer.
The preparations were equilibrated for 60 minutes and then primed every 30 minutes with 10 μM NA for three times. The aortic rings were then incubated with the alkylating agent chloroethylclonidine (50 μM) for 30 minutes and then washed extensively three times, over a 30 min period before constructing the NA-concentration/response curve. Following washing, tissue was re-equilibrated for 45 min. Test drug was added and after 30 minutes, a second cumulative-NA-concentration/response curve was constructed. Each antagonist concentration was tested using 2-3 aortic rings from different rabbits.
Dose ratios (i.e., the ratio between the concentrations of noradrenaline required to produce half-maximal response in the presence and in the absence of the test antagonist) were calculated at each concentration of the compounds. The logarithm of these dose ratio −1 was plotted against the logarithm of the compound concentrations (Schild plot) to evaluate the affinity constant Kb.
When only one or two concentrations of the test compounds were utilised, the apparent Kb value was calculated using the formula: Kb=[B]/(DOSE RATIO-1), where B is the antagonist concentration.

Test [2] addresses T3, recombinant α1a-adrenoceptor (Homo sapiens, UniProt P35348).
T3 construct: expressed in transfected cells
T3 sequence (P35348 1-466): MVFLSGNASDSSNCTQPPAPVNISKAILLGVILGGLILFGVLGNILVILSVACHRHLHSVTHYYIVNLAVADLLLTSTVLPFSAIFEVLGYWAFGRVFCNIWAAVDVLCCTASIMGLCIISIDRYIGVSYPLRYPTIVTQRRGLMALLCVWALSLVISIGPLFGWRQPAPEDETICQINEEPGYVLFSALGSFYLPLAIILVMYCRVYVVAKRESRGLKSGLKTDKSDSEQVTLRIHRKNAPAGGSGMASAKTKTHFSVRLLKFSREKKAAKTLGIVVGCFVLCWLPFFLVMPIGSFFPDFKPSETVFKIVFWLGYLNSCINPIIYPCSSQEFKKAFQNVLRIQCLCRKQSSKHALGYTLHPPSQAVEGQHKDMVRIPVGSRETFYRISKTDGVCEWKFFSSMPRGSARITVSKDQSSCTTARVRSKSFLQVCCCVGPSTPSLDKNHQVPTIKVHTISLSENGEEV
Put plainly: Radioligand binding ([3H]prazosin) to cloned α1a adrenoceptor. The following applies: read-out: Affinity (Ki) α1a. The method, then: Determination of affinity for cloned subtypes of the α1-adrenoceptor was performed in membranes from cells transfected by electroporation with DNA expressing the genes encoding each α1-adrenoceptor subtype.
Non-specific binding was determined in the presence of 10 μM phentolamine. Incubation was stopped by addition of ice-cold Tris buffer and rapid filtration through Schleicher & Schuell GF52 filters that had been pretreated with 0.2%-polyethyleneimine.
as §1

Regarding `O=C(NCCCN1CCN(c2ccccc2OCC(F)(F)F)CC1)c1csc2c(=O)cc(-c3ccccc3)oc12` [Example 5, 7-Oxo-5-phenyl-N-{3-[4-[2-(2,2,2-trifluoroethoxy)phenyl]-1-piperazinyl]propyl}-7H-thieno[3,2-b]pyran-3-carboxamide], the Ki is 7.59 nM in test [1] and 0.045 nM in test [2]. Besides, the “pKb, functional affinity for the α1L adrenoceptor subtype” value at α1L adrenoceptor worked out at 9.12.

Turning to `COc1ccccc1N1CCN(CCCNC(=O)c2csc3c(=O)cc(-c4ccccc4)oc23)CC1` [Example 2, N-{3-[4-(2-Methoxyphenyl)-1-piperazinyl]propyl}-7-oxo-5-phenyl-7H-thieno[3,2-b]pyran-3-carboxamide], the inhibition constant Ki is 4.48 nM in test [1] and 0.1 nM in test [2]. Moreover, the “pKb, functional affinity for the α1L adrenoceptor subtype” value on α1L adrenoceptor was determined as 8.85.

The term Ki denotes the equilibrium dissociation constant of an inhibitor or competing ligand from its target.

Source of the values: patent US6387909B1, “Thienopyranecarboxamide derivatives” (Recordati S.A. Chemical and Pharmaceutical Company, priority 1999, dated 2002).
